Data reported in patent US12275721B2, “Indazole carboxamides as kinase inhibitors” (BRISTOL-MYERS SQUIBB COMPANY, priority 2019, dated 2025).

How the values were obtained:
[1] = tested on: MLKL phosphorylation in HT29-L23 human colorectal adenocarcinoma cells; assay: MLKL Phosphorylation High-Content Assay; assay type: cell-based; conditions: Homo sapiens, necroptosis induced with TNFα, SMAC mimetic and Z-VAD, 6 h, read-out: pMLKL (IC50)
Method: MLKL Phosphorylation High-Content Assay
HT29-L23 human colorectal adenocarcinoma cells were maintained in RPMI 1640 medium containing 10% heat-inactivated FBS, 1% Penicillin-Streptomycin and 10 mM HEPES. Cells were seeded at 2,000 cells/well in 384 well tissue culture-treated microplates (Greiner #781090-3B) and incubated at 37° C. (5% CO2/95% O2) for 2 d. On the day of the assay, the cells were treated with test compounds at final concentrations of 6.25 to 0.106 μM for 30 min at 37° C. (5% CO2/95% O2). Necroptopsis was induced using a mixture of human TNFα (35 ng/mL) (Peprotech #300-01A), SMAC mimetic (from US 2015/0322111 A1) (700 nM) and Z-VAD (140 nM) (BD pharmingen #51-6936). Following 6 h incubation at 37° C. (5% CO2/95% O2), the cells were fixed with 4% formaldehyde (ACROS 11969-0010) for 15 min at rt, then permeabilized with phosphate buffered saline (PBS) containing 0.2% Triton-X-100 for 10 min. MLKL phosphorylation was detected using anti-MLKL (phospho S358) antibody (Abcam #ab187091) (1:1000 dilution in Blocking Buffer [PBS supplemented with 0.1% BSA]) with ON incubation at 4° C. After washing three times in PBS, goat anti-rabbit Alexa-488 (1:1000 dilution) (Life Technologies, A1 1008) and Hoechst 33342 (Life Technologies, H3570) (1:2000 dilution) in Blocking Buffer were added for 1 h at rt. Following another three cycles of washes in PBS, the microplates were sealed, and cellular images were acquired in the Cellomics ArrayScan VTI high-content imager equipped with an X1 camera. Fluorescent images were taken using a 10× objective and the 386-23 BGRFRN_BGRFRN and 485-20 BGRFRN_BGRFRN filter sets, for nuclei and MLKL phosphorylation, respectively. The image sets were analyzed using the Compartmental Analysis Bioapplication software (Cellomics). The level of MLKL phosphorylation was quantified as MEAN_CircRingAvglntenRatio. The maximal inhibitory response was defined by the activity induced by Necls (CAS #: 852391-15-2, 6.25 μm). The IC50 value was defined as the concentration of compound that produces 50% of the maximal inhibition. The data were fitted using the 4-parameter logistic equation to calculate the IC50 and Ymax values.

[2] = target: T1, His-GST-TVMV-hRIPK1(1-324) (Homo sapiens, UniProt Q13546); assay: RIPK1 HTRF Binding Assay; conditions: HTRF probe displacement, 1 h at rt
T1 construct: 1 nM His-GST-TVMV-hRIPK1(1-324) in FRET Buffer; made in house; host or cells: Spodoptera frugiperda (Sf9) insect cells, baculovirus (Bac-to-Bac)
T1 sequence (Q13546 1-324): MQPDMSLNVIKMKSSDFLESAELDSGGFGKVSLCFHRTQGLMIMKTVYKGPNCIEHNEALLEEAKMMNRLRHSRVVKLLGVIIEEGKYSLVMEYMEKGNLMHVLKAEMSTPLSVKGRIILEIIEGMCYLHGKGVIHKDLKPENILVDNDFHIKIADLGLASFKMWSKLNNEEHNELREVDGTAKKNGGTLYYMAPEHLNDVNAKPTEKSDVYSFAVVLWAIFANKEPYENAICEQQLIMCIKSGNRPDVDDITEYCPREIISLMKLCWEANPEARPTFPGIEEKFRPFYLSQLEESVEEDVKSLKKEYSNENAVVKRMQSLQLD
Method: A solution was prepared containing 0.2 nM Anti GST-Tb (Cisbio, 61GSTTLB), 90.6 nM probe and 1 nM His-GST-TVMV-hRIPK1(1-324) in FRET Buffer (20 mM HEPES, 10 mM MgCl2, 0.015% Brij-35, 4 mM DTT, 0.05 mg/mL BSA). Using Formulatrix Tempest, the detection antibody/enzyme/probe solution ([…]) was dispensed into wells of a 1536 plate (Black Low Binding Polystyrene 1536 Plate (Corning, 3724)) containing 10 nL of compounds of interest at appropriate concentration in DMSO. The plate was incubated at rt for 1 h. FRET was measured using the EnVision plate reader (Excitation: 340 nm, Emission: 520 nm/[…]). Total signal (0% inhibition) was calculated from wells containing 10 nL DMSO only.
Cloning and Baculovirus Expression of RIPK1 Construct
The coding region of human RIPK1(1-324) flanked by NdeI site at 5′ end and stop codon TGA and XhoI site at 3′ end was codon optimized and gene synthesized at GenScript USA Inc. (Piscataway, NJ) and subcloned into a modified pFastBac1 vector (Invitrogen, Carlsbad, CA) with N-terminal His-GST-TVMV tag, to generate His-GST TVMV-hRIPK1(1-324)-pFB. The fidelity of the synthetic fragment was confirmed by sequencing. Baculovirus was generated for the construct using the Bac-to-Bac baculovirus expression system (Invitrogen) according to the manufacturer's protocol. Briefly, recombinant bacmid was isolated from transformed DH10Bac E. coli competent cells 20 (Invitrogen) and used to transfect Spodoptera frugiperda (Sf9) insect cells (Invitrogen). Baculovirus was harvested 72 hours post transfection and a virus stock was prepared by infecting fresh Sf9 cells at a 1/1000 (v/v) ratio for 66 hours. For large scale protein production, Sf9 cells (Expression System, Davis, CA) grown in ESF921 insect medium (Expression System) at 2×10^6 cells/ml were infected with virus stock at a 1/100 (v/v) ratio for 66 hours. The production was carried out either at a 10 L scale in a 22 L cellbag (GE Healthcare Bioscience, Pittsburgh, PA) or at a 20 L scale in a 50 L cellbag using WAVE-Bioreactor System 20/50 (GE Healthcare Bioscience). The infected cells were harvested by centrifugation at 2000 rpm for 20 min at 4° C. in a SORVALL® RC12BP centrifuge. The cell pellets was stored at −70° C. before protein was purified.
Purification of His-GST-TVMV-hRIPK1(1-324)
RIPK1 containing cell paste was resuspended in 50 mM Tris pH 7.5, 150 mM NaCl, 10 mM imidazole, 5% glycerol, 5 mM MgSO4, 1 mM TCEP, 25 U/ml Benzonase, and Complete Protease Inhibitor tablets (1/50 ml, Roche Diagnostics, Indianapolis, IN). The cells were lysed by nitrogen cavitation using an unstirred pressure vessel @ 525 PSI (Parr Instrument Company, Moline, IL). The suspension was clarified by centrifugation at 136,000×g for 40 min, at 4° C. The lysate was decanted from the pellet and passed through a 5 ml NiNTA Superflow cartridge (Qiagen, Valencia, CA) using an AKTA Pure (GE Healthcare). Column was eluted with 10 CV linear gradient into 50 mM Tris 7.5, 150 mM NaCl, 500 mM imidazole, 5% glycerol, 1 mM TCEP. Peak fractions were pooled and loaded directly onto 5 ml GSTrap 4B column (GE Healthcare). Column was washed with 50 mM Tris 7.0, 150 mM NaCl, […], 1 mM DTT and eluted in 10 CV linear gradient into 50 mM Tris 8.0, 150 mM NaCl, 20 mM reduced glutathione, 50% glycerol, 1 mM DTT. Fractions identified by SDS-PAGE as containing RIPK1 were pooled and concentrated using 30 kDa MWCO spin concentrators (Amicon Ultra-15, Millipore, Billerica, MA) and loaded onto a HiLoad 26/600 Superdex 200 column (GE Healthcare) equilibrated in 25 mM Tris 7.5, 150 mM NaCl, 2 mM TCEP, […]. The RTPK1 protein eluted as a dimer off the SEC column. The yield was ˜8 mg/L with a purity […] as determined by Coomassie stain SDS-PAGE gel analysis. […] Protein was aliquoted and stored at −80° C. Using these assays, the IC50 values of the following compounds were determined.

| Compound | IC50 [1] [µM] | IC50 [2] [µM] |
| --- | --- | --- |
| CNC(=O)c1n[nH]c2cc(-c3csc(C(=O)NCc4cc(OC(F)(F)F)ccc4F)c3)ccc12 [Example 1, 6-(5-((2-fluoro-5-(trifluoromethoxy)benzyl)carbamoyl)thiophen-3-yl)-N-methyl-1H-indazole-3-carboxamide] | 0.021 | 0.0068 |
| CNC(=O)c1n[nH]c2cc(-c3csc(C(=O)NCCC(C)c4ccccc4)c3)ccc12 (stereo not drawn) [Example 2, N-methyl-6-(5-((3-phenylbutyl)carbamoyl)thiophen-3-yl)-1H-indazole-3-carboxamide] | 0.0082 | 0.006 |
| CNC(=O)c1n[nH]c2cc(-c3csc(C(=O)NCC[C@@H](O)c4ccc(Cl)cc4)c3)ccc12 [Example 3, (R)-6-(5-((3-(4-chlorophenyl)-3-hydroxypropyl)carbamoyl)thiophen-3-yl)-N-methyl-1H-indazole-3-carboxamide] | 0.2 | 0.047 |
| CNC(=O)c1n[nH]c2cc(-c3csc(C(=O)NCC[C@H](O)c4ccc(Cl)cc4)c3)ccc12 [Example 4, (S)-6-(5-((3-(4-chlorophenyl)-3-hydroxypropyl)carbamoyl)thiophen-3-yl)-N-methyl-1H-indazole-3-carboxamide] | 0.23 | 0.043 |
| CC(C)NC(=O)c1n[nH]c2cc(-c3csc(C(=O)NCC[C@@H](O)c4ccc(Cl)cc4)c3)ccc12 [Example 5, (R)-6-(5-((3-(4-chlorophenyl)-3-hydroxypropyl)carbamoyl)thiophen-3-yl)-N-isopropyl-1H-indazole-3-carboxamide] | 1.1 | 0.8 |
| CNC(=O)c1n[nH]c2cc(-c3ccc(C(=O)NCc4cc(OC(F)(F)F)ccc4F)s3)ccc12 [Example 6, 6-(5-((2-fluoro-5-(trifluoromethoxy)benzyl)carbamoyl)thiophen-2-yl)-N-methyl-1H-indazole-3-carboxamide] | 0.056 | 0.031 |
| CNC(=O)c1n[nH]c2cc(-c3ccc(C(=O)NCCC(C)c4ccccc4)s3)ccc12 (stereo not drawn) [Example 7, N-methyl-6-(5-((3-phenylbutyl)carbamoyl)thiophen-2-yl)-1H-indazole-3-carboxamide] | 0.0039 | 0.017 |
| CNC(=O)c1n[nH]c2cc(-c3ccc(C(=O)NCC[C@H](O)c4ccc(Cl)cc4)s3)ccc12 [Example 8, (S)-6-(5-((3-(4-chlorophenyl)-3-hydroxypropyl)carbamoyl)thiophen-2-yl)-N-methyl-1H-indazole-3-carboxamide] | 6.3 | 0.22 |
| CNC(=O)c1n[nH]c2cc(-c3cc(C)c(C(=O)NCc4cc(OC(F)(F)F)ccc4F)s3)ccc12 [Example 10, 6-(5-((2-fluoro-5-(trifluoromethoxy)benzyl)carbamoyl)-4-methylthiophen-2-yl)-N-methyl-1H-indazole-3-carboxamide] | 0.001 | 0.002 |
| CNC(=O)c1n[nH]c2cc(-c3cc(C)c(C(=O)NCCC(C)c4ccccc4)s3)ccc12 (stereo not drawn) [Example 11, N-methyl-6-(4-methyl-5-((3-phenylbutyl)carbamoyl)thiophen-2-yl)-1H-indazole-3-carboxamide] | 0.002 | 0.0018 |
| CNC(=O)c1n[nH]c2cc(-c3cc(C)c(C(=O)NCC[C@@H](O)c4ccc(Cl)cc4)s3)ccc12 [Example 12, (R)-6-(5-((3-(4-chlorophenyl)-3-hydroxypropyl)carbamoyl)-4-methylthiophen-2-yl)-N-methyl-1H-indazole-3-carboxamide] | 0.011 | 0.0038 |
| CNC(=O)c1n[nH]c2cc(-c3nc(C)c(C(=O)NCc4cc(OC(F)(F)F)ccc4F)s3)ccc12 [Example 14, N-(2-fluoro-5-(trifluoromethoxy)benzyl)-4-methyl-2-(3-(methylcarbamoyl)-1H-indazol-6-yl)thiazole-5-carboxamide] | 0.008 | 0.007 |
| CNC(=O)c1n[nH]c2cc(-c3nc(C)c(C(=O)NCCC(C)c4ccccc4)s3)ccc12 (stereo not drawn) [Example 15, 4-methyl-2-(3-(methylcarbamoyl)-1H-indazol-6-yl)-N-(3-phenylbutyl)thiazole-5-carboxamide] | 0.044 | 0.0083 |
| CNC(=O)c1n[nH]c2cc(-c3nc(C)c(C(=O)NCC[C@@H](O)c4ccc(Cl)cc4)s3)ccc12 [Example 16, (R)-N-(3-(4-chlorophenyl)-3-hydroxypropyl)-4-methyl-2-(3-(methylcarbamoyl)-1H-indazol-6-yl)thiazole-5-carboxamide] | 0.21 | 0.15 |
| CNC(=O)c1n[nH]c2cc(-c3nc(C)c(C(=O)NCC[C@H](O)c4ccc(Cl)cc4)s3)ccc12 [Example 17, (S)-N-(3-(4-chlorophenyl)-3-hydroxypropyl)-4-methyl-2-(3-(methylcarbamoyl)-1H-indazol-6-yl)thiazole-5-carboxamide] | 0.34 | 0.18 |
